Consider 1 substance from PMC8969299 (Chemical Engineering Journal, 2022).

The test system of series [1] is SARS-CoV-2 and its variants.
Series [2] deals with SARS-CoV-2. The experiment in a line: Detection of SARS-CoV-2 in clinical patient samples using COVID19-PEB.
The test system of series [3] is SARS-CoV-2. The experiment in a line: Fluorescence detection of SARS-CoV-2 in biofluids. The conditions noted are these: 10% nasal fluid and 10% saliva; n = 3; Fig. 5.
In a further series the test system is influenza A virus. As to the kind of experiment: Fluorescence response of COVID19-PEB to influenza A virus. The arrangement: species or system influenza A (pH1N1) virus (Human/Canada/2009). The conditions noted are these: COVID 19-PEB 10 nmol in 100 µL; 25 °C; n = 3; Fig. 4d.
Another series deals with SARS-CoV-2 S protein RBD (Severe acute respiratory syndrome coronavirus 2, UniProt P0DTC2).
Another series concerns HCoV-OC43. As to the kind of experiment: Fluorescence response of COVID19-PEB to HCoV-OC43. Also on record: species or system Human coronavirus OC43 (HCoV-OC43). The note with it: COVID 19-PEB 10 nmol in 100 µL; 25 °C; n = 3; Fig. 4f.
The subject of the next series is influenza B virus. The experiment in a line: Fluorescence response of COVID19-PEB to influenza B virus. Also on record: species or system influenza B viruses (Victoria Brisbane/20/2009). The conditions noted are these: COVID 19-PEB 10 nmol in 100 µL; 25 °C; n = 3; Fig. 4e.
A short description of series [4]: Fluorescence lifetime of COVID19-PEB before/after annealing. It counts as physicochemical. The conditions noted are these: before annealing; Oligo-Cy3 and Oligo-BHQ2 fixed at 10 nmol; Fig. 3c.
In series [5] the test system is SARS-CoV-2. The experiment in a line: Fluorescence.

Consider “Cy3-TTTTGGGGG- I EEQA KTFL DKFN HEAE DLFY QSSL ASWK-CCCCCAAAA-BHQ2 [COVID19-PEB]”, for which the “discrimination among genetic mutations in SARS-CoV-2” value in [1] is reported as “does not effectively discriminate among the genetic mutations in SARS-CoV-2”. In [1] (Fig. S5), the “detection of SARS-CoV-2 and its variants” value was “useful for sensitive and rapid detection of SARS-CoV-2 and its variants”. In addition, in the series on SARS-CoV-2 [2], the “detection of virus in PCR-confirmed patient samples” value was “accurately detected the virus”. Also, the “detection of SARS-CoV-2 in biofluid” value with SARS-CoV-2 [3] is listed as “efficiently detected SARS-CoV-2 in the biofluid, with high sensitivity”. Moreover, in the series on influenza A virus, the “change in fluorescence signal, influenza A virus” value was “no change in fluorescence signal was observed”. At SARS-CoV-2 S protein RBD, the “fluorescence intensity with increasing concentration of S proteins” value is “gradually increased with the increasing concentration of the S proteins” and the “time within which intensity change could be measured, S protein RBD” value is on record as at most 1 h. Further, the “change in fluorescence signal, HCoV-OC43” value in the series with HCoV-OC43 is “no change in fluorescence signal was observed”. Moreover, the “change in fluorescence signal, influenza B virus” value in the series with influenza B virus was “no change in fluorescence signal was observed”. This substance displayed a fluorescence lifetime in [4] of 2.23 ± 0.02 ns. For the same substance, in the series on SARS-CoV-2 [5] (COVID19-PEB), the “detection time, SARS-CoV-2” value was at most 3 h and the “detection time, SARS-CoV-2 (shortest stated)” value was at most 50 min. Also, the “time within which intensity change could be measured, SARS-CoV-2” value with SARS-CoV-2 [5] (COVID 19-PEB 10 nmol, Fig. S4) was at most 1 h. The “detection limit, SARS-CoV-2” value in the series with SARS-CoV-2 [5] (COVID19-PEB fluorescence, 100 µL test) is 4 × 10^3 plaque-forming unit/test.
